Legend:
Format in all cases: in vivo, human
[1] = tested on: patients with chronic schizophrenia; assay: Movement rating scales SAS, BAS, AIMS, Clinical Study Four; settings: for AIMS total score at Month 6: APTS; for proportion of patients normal with respect to SAS status: Month 6
Method: (§1) METHODOLOGY: This study was a multinational, multicenter, randomized, double-blind, parallel-group, placebo-controlled, fixed-dose study. The study consisted of a 3- to 6-day antipsychotic-free run-in period, after which patients were randomised to 6 months of double-blind treatment with fixed doses of bifeprunox (20 mg/day (BX20) or 30 mg/day (BX30)) or placebo (PBO). Patients allocated to the BX groups were up-titrated from 0.25 mg/day over 7 days (BX20) or 8 days (BX30), and then continued on these doses for the remainder of the study. […] At predetermined time points, blood samples were obtained for drug concentration analysis of BX and its major metabolites (3′- and 4′-sulfate conjugates of BX), and pharmaco-economic assessments were performed.
The SAS is used to measure Parkinsonian-type symptoms in patients exposed to antipsychotics. The scale consists of 10 items, each rated on a 5-point scale ranging from 0 (complete absence of the condition) to 4 (presence of the condition in extreme form). The SAS total score is defined as the sum of all item scores, and the range is 0 to 40. A SAS total score of up to 3 is considered normal.
The BAS is used to rate observable, restless movements of drug-induced akathisia as well as the subjective awareness of restlessness and any distress associated with the akathisia. The scale consists of 3 items that is rated from 0 (no evidence of akathisia) to 3 (severe akathisia). The BAS total score is defined as the sum of the these three BAS item scores and ranges from is 0 to 9. In addition, a global clinical assessment of akathisia is rated from 0 (no evidence of akathisia) to 5 (severe akathisia).
The AIMS, designed to record the occurrence of dyskinetic movements, consists of 12 items. Items 1 to 7 measure specific involuntary movements on a scale from 0 (none) to 4 (severe). Items 8 to 10 measure global assessment of abnormal movement on a scale from 0 (no awareness) to 4 (aware, severe distress). Items 11 and 12 are questions regarding the dental condition of the patient, with yes/no answers. The total score is calculated by summing AIMS items 1 through 10 and ranges from 0 to 40; the non-global total score is calculated by summing items 1 through 7.

[2] = Incidence of hyperglycemia and diabetes-related adverse events in placebo-controlled trials
From the text: Hyperglycemia, in some cases extreme and associated with ketoacidosis or hyperosmolar coma or death, has been reported in patients treated with atypical antipsychotics. The incidence of hyperglycemia and diabetes-related adverse events (such as hyperglycemia, elevated blood glucose, impaired glucose tolerance, diabetes mellitus, inadequately controlled diabetes) in patients treated with bifeprunox was 0.5% (5/1050) and in placebo-treated patients was 0.6% (3/469) in six-week placebo-controlled trials. […] Assessment of the relationship between atypical antipsychotic use and glucose abnormalities is complicated by the possibility of an increased background risk of diabetes mellitus in patients with schizophrenia and the increasing incidence of diabetes mellitus in the general population. Given these confounders, the relationship between atypical antipsychotic use and hyperglycemia-related adverse events is not completely understood. […] Because bifeprunox was not marketed at the time these studies were performed, it is not known if bifeprunox is associated with this increased risk. Precise risk estimates for hyperglycemia-related adverse events in patients treated with atypical antipsychotics are not available.

[3] = Lipid profile and fasting glucose, Clinical Study Four
Method: as §1

[4] = BX20 (bifeprunox 20 mg), Fasting
[5] = BX20 (bifeprunox 20 mg), Non-fasting
[6] = BX30 (bifeprunox 30 mg), Fasting
[7] = BX30 (bifeprunox 30 mg), Non-fasting

O=c1[nH]c2cccc(N3CCN(Cc4cccc(-c5ccccc5)c4)CC3)c2o1 [Bifeprunox, 7-[4-([1,1′-biphenyl]-3-ylmethyl)-1-piperazinyl]-2(3H)-benzoxazolone]
AIMS score, mean (SD) ([1]; BX20, Baseline, LOCF): 1.04 (2.76)
BAS score, mean (SD) ([1]; BX20, Baseline, LOCF): 0.44 (1.10)
SAS score, mean (SD) ([1]; BX20, Baseline, LOCF): 2.27 (3.72)
AIMS score, mean (SD) ([1]; BX20, Baseline, OC): 1.04 (2.76)
BAS score, mean (SD) ([1]; BX20, Baseline, OC): 0.46 (1.10)
SAS score, mean (SD) ([1]; BX20, Baseline, OC): 2.27 (3.72)
AIMS score, mean (SD) ([1]; BX20, Month 6, LOCF): 1.55 (3.92)
BAS score, mean (SD) ([1]; BX20, Month 6, LOCF): 0.49 (1.25)
SAS score, mean (SD) ([1]; BX20, Month 6, LOCF): 1.22 (2.47)
AIMS score, mean (SD) ([1]; BX20, Month 6, OC): 1.08 (2.13)
BAS score, mean (SD) ([1]; BX20, Month 6, OC): 0.17 (0.42)
SAS score, mean (SD) ([1]; BX20, Month 6, OC): 0.97 (2.20)
AIMS score, mean (SD) ([1]; BX20, Week 6, LOCF): 1.59 (3.96)
BAS score, mean (SD) ([1]; BX20, Week 6, LOCF): 0.49 (1.21)
SAS score, mean (SD) ([1]; BX20, Week 6, LOCF): 1.43 (2.77)
AIMS score, mean (SD) ([1]; BX20, Week 6, OC): 1.16 (2.55)
BAS score, mean (SD) ([1]; BX20, Week 6, OC): 0.36 (0.99)
SAS score, mean (SD) ([1]; BX20, Week 6, OC): 1.31 (2.69)
AIMS total score at Month 6 ([1]; BX20, OC): 1.08
proportion of patients normal with respect to SAS status ([1]; BX20): 89%
AIMS score, mean (SD) ([1]; BX30, Baseline, LOCF): 1.35 (2.79)
BAS score, mean (SD) ([1]; BX30, Baseline, LOCF): 0.45 (1.11)
SAS score, mean (SD) ([1]; BX30, Baseline, LOCF): 2.33 (3.53)
AIMS score, mean (SD) ([1]; BX30, Baseline, OC): 1.35 (2.79)
SAS score, mean (SD) ([1]; BX30, Baseline, OC): 2.33 (3.53)
AIMS score, mean (SD) ([1]; BX30, Month 6, LOCF): 2.77 (6.09)
SAS score, mean (SD) ([1]; BX30, Month 6, LOCF): 2.09 (3.64)
AIMS score, mean (SD) ([1]; BX30, Month 6, OC): 0.86 (3.18)
BAS score, mean (SD) ([1]; BX30, Month 6, OC): 0.16 (0.65)
SAS score, mean (SD) ([1]; BX30, Month 6, OC): 1.16 (2.78)
AIMS score, mean (SD) ([1]; BX30, Week 6, LOCF): 2.83 (6.09)
BAS score, mean (SD) ([1]; BX30, Week 6, LOCF): 0.66 (1.55)
SAS score, mean (SD) ([1]; BX30, Week 6, LOCF): 2.35 (3.87)
AIMS score, mean (SD) ([1]; BX30, Week 6, OC): 1.80 (4.25)
SAS score, mean (SD) ([1]; BX30, Week 6, OC): 2.06 (3.41)
AIMS total score at Month 6 ([1]; BX30, OC): 0.86
proportion of patients normal with respect to SAS status ([1]; BX30): 78%
hyperglycemia or diabetes-related adverse events ([2]; 26-week placebo-controlled trial): no patients reported
incidence of hyperglycemia and diabetes-related adverse events ([2]; six-week placebo-controlled trials): 0.5%
adjusted mean fasting glucose increase from baseline to Month 6 ([3]; BX20): 0.13 mmol/L
Cholesterol, total, Mean change from baseline to Month 6 [3, 4]: -0.18 mmol/L
HDL, direct, Mean change from baseline to Month 6 [3, 4]: 0.07 mmol/L
LDL, calculated, Mean change from baseline to Month 6 [3, 4]: -0.1 mmol/L
Triglycerides, Mean change from baseline to Month 6 [3, 4]: -0.08 mmol/L
VLDL, calculated, Mean change from baseline to Month 6 [3, 4]: -0.03 mmol/L
Cholesterol, total, Mean change from baseline to Month 6 [3, 5]: -0.42 mmol/L
HDL, direct, Mean change from baseline to Month 6 [3, 5]: 0.12 mmol/L
LDL, calculated, Mean change from baseline to Month 6 [3, 5]: -0.35 mmol/L
Triglycerides, Mean change from baseline to Month 6 [3, 5]: -0.41 mmol/L
VLDL, calculated, Mean change from baseline to Month 6 [3, 5]: -0.19 mmol/L
adjusted mean HDL cholesterol change from baseline to Month 6 ([3]; BX20, fasting): 0.07 mmol/L
adjusted mean triglycerides change from baseline to Month 6 ([3]; BX20, fasting): -0.16 mmol/L
adjusted mean HDL cholesterol change from baseline to Month 6 ([3]; BX20, non-fasting): 0.08 mmol/L
adjusted mean triglycerides change from baseline to Month 6 ([3]; BX20, non-fasting): -0.21 mmol/L
adjusted mean fasting glucose increase from baseline to Month 6 ([3]; BX30): 0.09 mmol/L
Cholesterol, total, Mean change from baseline to Month 6 [3, 6]: -0.22 mmol/L
HDL, direct, Mean change from baseline to Month 6 [3, 6]: 0.05 mmol/L
LDL, calculated, Mean change from baseline to Month 6 [3, 6]: -0.12 mmol/L
Triglycerides, Mean change from baseline to Month 6 [3, 6]: -0.40 mmol/L
VLDL, calculated, Mean change from baseline to Month 6 [3, 6]: -0.16 mmol/L
Cholesterol, total, Mean change from baseline to Month 6 [3, 7]: -0.10 mmol/L
HDL, direct, Mean change from baseline to Month 6 [3, 7]: 0.08 mmol/L
LDL, calculated, Mean change from baseline to Month 6 [3, 7]: -0.12 mmol/L
Triglycerides, Mean change from baseline to Month 6 [3, 7]: 0.06 mmol/L
VLDL, calculated, Mean change from baseline to Month 6 [3, 7]: 0.03 mmol/L
adjusted mean HDL cholesterol change from baseline to Month 6 ([3]; BX30, fasting): 0.07 mmol/L
adjusted mean triglycerides change from baseline to Month 6 ([3]; BX30, fasting): -0.37 mmol/L
adjusted mean HDL cholesterol change from baseline to Month 6 ([3]; BX30, non-fasting): 0.08 mmol/L
adjusted mean triglycerides change from baseline to Month 6 ([3]; BX30, non-fasting): -0.03 mmol/L
